Each compound was assayed against MTH1 (Homo sapiens, UniProt P36639) (assay: MTH1 enzymatic assay and IC50 value determination (malachite green)). Details: MTH1 4.8 nM, dGTP 100 μM, 15 minutes at 22° C.; group: between 2 μM and 10 μM.
Format: biochemical
Method: MTH1 Enzymatic Assay and IC50 Value Determination
MTH1 catalyzes the hydrolysis of dGTP to dGMP and PPi. By coupling the reaction to pyrophosphatase added in excess PPi is converted to Pi that can be detected by using the malachite green assay reagent. Briefly, for IC50 value determination the compound to be analyzed is diluted in assay buffer in a 1:3 dilution series generating 12 different compound concentrations giving a final DMSO concentration of 1% in the assay well. MTH1 diluted in assay buffer (100 mM Tris-acetate, 40 mM NaCl, 10 mM magnesium acetate, 1 mM DTT and 0.005% Tween 20) fortified with E. coli pyrophosphatase (0.8 U/ml) is added to a final concentration of 4.8 nM. dGTP diluted in assay buffer is added to a final concentration of 100 μM. The reaction mixture is incubated with shaking for 15 minutes at 22° C. To 100 μl reaction mixture is 25 μl Malachite green assay regent (0.095% Malachite green in 17% H2SO4, 1.5% Ammonium molybdate, 0.17% Tween 20) added followed by incubation with shaking for 15 minutes at 22° C.
The absorbance of the assay plate is read at 630 nm using an EnVision Multilabel plate reader. The IC50 value is determined by fitting a dose response curve to the data points using nonlinear regression analysis and the equation Y=Bottom+(Top−Bottom)/(1+10^((Log IC50−X)*HillSlope)), where Y is the read absorbance at 630 nm and X is log [compound].

Row | SMILES | IC50 [nM]
1 | Cc1ccc(S(=O)(=O)n2cc(-c3cc(NCC(C)(C)C)nc(N)n3)c3ccccc32)cc1 [Example 182, 4-N-(2,2-dimethylpropyl)-6-[1-(4-methylbenzenesulfonyl)-1H-indol-3-yl]pyrimidine-2,4-diamine] | 2000 to 10000
2 | CNc1cc(-c2ccccn2)nc(N)n1 [Example 78, 4-N-methyl-6-(pyridin-2-yl)pyrimidine-2,4-diamine] | 2000 to 10000
3 | Cc1cccc(-c2cc(NC3CCCCC3NC(=O)OC(C)(C)C)nc(N)n2)c1C (mixture of isomers) [Example 372, tert-Butyl N-(2-{[2-amino-6-(2,3-dimethylphenyl)pyrimidin-4-yl]amino}cyclohexyl)-carbamate] | 2000 to 10000

Same assay, conditions: MTH1 4.8 nM, dGTP 100 μM, 15 minutes at 22° C.; group: less than 200 nM

Row | SMILES | IC50 [nM]
4 | Nc1nc(NC2CCC2)cc(-c2cccc(Cl)c2Cl)n1 [Example 64, 4-N-cyclobutyl-6-(2,3-dichlorophenyl)pyrimidine-2,4-diamine] | < 200
5 | CNc1cc(-c2ccc(F)cc2OC)nc(N)n1 [Example 73, 6-(4-fluoro-2-methoxyphenyl)-4-N-methylpyrimidine-2,4-diamine] | < 200
6 | CNc1cc(-c2cccc(NC(=O)CO)c2)nc(N)n1 [Example 322, N-{3-[2-Amino-6-(methylamino)pyrimidin-4-yl]phenyl}-2-hydroxyacetamide] | < 200
7 | COc1ccccc1CCNc1cc(-c2cccc(C)c2C)nc(N)n1 [Example 126, 6-(2,3-dimethylphenyl)-4-N-[2-(2-methoxyphenyl)ethyl]pyrimidine-2,4-diamine] | < 200
8 | Nc1nc(NCc2ccccc2)cc(-c2ccccc2)n1 [Example 11, 4-N-benzyl-6-phenylpyrimidine-2,4-diamine] | < 200
9 | Cc1ncsc1CCNc1cc(-c2cccc(Cl)c2Cl)nc(N)n1 [Example 405, 6-(2,3-dichlorophenyl)-4-N-[2-(4-methyl-1,3-thiazol-5-yl)ethyl]pyrimidine-2,4-diamine] | < 200
10 | CCNc1cc(-c2cccc(Cl)c2C)nc(N)n1 [Example 245, 6-(3-chloro-2-methylphenyl)-4-N-ethylpyrimidine-2,4-diamine] | < 200
11 | CCNc1cc(-c2cccc(Cl)c2Cl)nc(N)n1 [Example 66, 6-(2,3-dichlorophenyl)-4-N-ethylpyrimidine-2,4-diamine] | < 200
12 | CNc1cc(-c2ccc(C(=O)OC)cc2)nc(N)n1 [Example 103, methyl 4-[2-amino-6-(methylamino)pyrimidin-4-yl]benzoate] | < 200
13 | Cc1cccc(-c2cc(NCCCNS(=O)(=O)c3cccc(C#N)c3)nc(N)n2)c1C [Example 374, N-(3-{[2-Amino-6-(2,3-dimethylphenyl)pyrimidin-4-yl]amino}propyl)-3-cyanobenzene-1-sulfonamide] | < 200
14 | CNc1cc(-c2ccccc2C(F)(F)F)nc(N)n1 [Example 89, 4-N-methyl-6-[2-(trifluoromethyl)phenyl]pyrimidine-2,4-diamine] | < 200
15 | Cc1cccc(-c2cc(NCCc3ccc(Cl)cc3)nc(N)n2)c1Cl [Example 228, 6-(2-chloro-3-methylphenyl)-4-N-[2-(4-chlorophenyl)ethyl]pyrimidine-2,4-diamine] | < 200
16 | Cc1c(C#N)cccc1-c1cc(NCCc2ccc(S(N)(=O)=O)cc2)nc(N)n1 [Example 426, 4-(2-{[2-amino-6-(3-cyano-2-methylphenyl)pyrimidin-4-yl]amino}ethyl)benzene-1-sulfonamide] | < 200
17 | Cc1cccc(-c2cc(NCCCCNS(=O)(=O)c3ccc(S(C)(=O)=O)cc3)nc(N)n2)c1C [Example 424, N-(4-{[2-amino-6-(2,3-dimethylphenyl)pyrimidin-4-yl]amino}butyl)-4-methanesulfonylbenzene-1-sulfonamide] | < 200
18 | CNc1cc(-c2cccc3ncccc23)nc(N)n1 [Example 52, 4-N-methyl-6-(quinolin-5-yl)pyrimidine-2,4-diamine] | < 200
19 | CNc1cc(-c2cc(F)c(F)cc2F)nc(N)n1 [Example 72, 4-N-methyl-6-(2,4,5-trifluorophenyl)pyrimidine-2,4-diamine] | < 200

Row | SMILES | IC50 [nM]
20 | [2H]C([2H])([2H])Nc1cc(-c2cccc(C)c2C)nc(N)n1 [Example 420, 6-(2,3-dimethylphenyl)-4-N—(^2H3)methylpyrimidine-2,4-diamine] | < 200
21 | Cc1cccc(-c2cc(NCC(C)c3ccc(Cl)cc3)nc(N)n2)c1C (centres unmarked) [Example 343, 4-N-[2-(4-Chlorophenyl)propyl]-6-(2,3-dimethylphenyl)pyrimidine-2,4-diamine] | < 200
22 | Cc1cccc(-c2cc(NCC3(c4ccc(Cl)cc4)CC3)nc(N)n2)c1C [Example 295, 4-N-{[1-(4-chlorophenyl)cyclopropyl]methyl}-6-(2,3-dimethylphenyl)pyrimidine-2,4-diamine] | < 200
23 | CNc1cc(-c2cccc(NC(=O)/C=C/CN(C)C)c2)nc(N)n1 [Example 312, (2E)-N-{3-[2-Amino-6-(methylamino)pyrimidin-4-yl]phenyl}-4-(dimethylamino)but-2-enamide] | < 200
24 | Cc1cccc(-c2cc(NCCOc3ccccc3)nc(N)n2)c1C [Example 132, 6-(2,3-dimethylphenyl)-4-N-(2-phenoxyethyl)pyrimidine-2,4-diamine] | < 200
25 | CNc1cc(-c2ccccc2OC)nc(N)n1 [Example 32, 6-(2-methoxyphenyl)-4-N-methylpyrimidine-2,4-diamine] | < 200
26 | CNc1cc(-c2cc(Cl)c3c(c2)OCO3)nc(N)n1 [Example 97, 6-(7-chloro-2H-1,3-benzodioxol-5-yl)-4-N-methylpyrimidine-2,4-diamine] | < 200
27 | Cc1cccc(-c2cc(NCCCNS(=O)(=O)c3c(C)nn(C)c3Cl)nc(N)n2)c1C [Example 389, N-(3-{[2-Amino-6-(2,3-dimethylphenyl)pyrimidin-4-yl]amino}propyl)-5-chloro-1,3-dimethyl-1H-pyrazole-4-sulfonamide] | < 200
28 | COc1ccc(-c2cc(NC3CCC3)nc(N)n2)cc1 [Example 59, 4-N-cyclobutyl-6-(4-methoxyphenyl)pyrimidine-2,4-diamine] | < 200
29 | CNc1cc(-c2cc3cn[nH]c3cc2C)nc(N)n1 [Example 146, 4-N-methyl-6-(6-methyl-1H-indazol-5-yl)pyrimidine-2,4-diamine] | < 200
30 | Cc1cccc(-c2cc(NCCc3ccc(C#N)cc3)nc(N)n2)c1C [Example 333, 4-(2-{[2-Amino-6-(2,3-dimethylphenyl)pyrimidin-4-yl]amino}ethyl)benzonitrile] | < 200
31 | CNc1cc(-c2ccc(CN)cc2)nc(N)n1 [Example 329, 6-[4-(Aminomethyl)phenyl]-4-N-methylpyrimidine-2,4-diamine] | < 200
32 | CCCCCNc1cc(-c2cccc(C)c2C)nc(N)n1 [Example 135, 6-(2,3-dimethylphenyl)-4-N-pentylpyrimidine-2,4-diamine] | < 200
33 | CNc1cc(-c2cc(C(C)(C)C)ccc2OC)nc(N)n1 [Example 197, 6-(5-tert-butyl-2-methoxyphenyl)-4-N-methylpyrimidine-2,4-diamine] | < 200
34 | C=Cc1ccc(-c2cc(NC)nc(N)n2)cc1 [Example 111, 6-(4-ethenylphenyl)-4-N-methylpyrimidine-2,4-diamine] | < 200
35 | CNc1cc(-c2cccc(NC(=O)C(O)c3ccccc3)c2)nc(N)n1 (centres unmarked) [Example 324, N-{3-[2-Amino-6-(methylamino)pyrimidin-4-yl]phenyl}-2-hydroxy-2-phenylacetamide] | < 200
